One block for each compound: values may come before it. Where a SMILES comes first, the peptide text is derived from it. The star is where a group is joined. Cbz = O=C(OCc1ccccc1)*; CH2F = FC*
Assays:
Caspase-1 (Mus musculus) = molecular target: T1, Caspase-1 (Mus musculus) (UniProt P29452); test: (§1) Inhibition of mouse recombinant ICE assessed as ratio of irreversible rate constant K3 to dissociation constant of the reversible binding step Ki pre-incubated for 60 mins with Acetyl-Tyr-Val-Ala-Asp-amino-4-methylcoumarin substrate followed by enzyme addition by fluorescence based assay
T1 sequence (whole entry): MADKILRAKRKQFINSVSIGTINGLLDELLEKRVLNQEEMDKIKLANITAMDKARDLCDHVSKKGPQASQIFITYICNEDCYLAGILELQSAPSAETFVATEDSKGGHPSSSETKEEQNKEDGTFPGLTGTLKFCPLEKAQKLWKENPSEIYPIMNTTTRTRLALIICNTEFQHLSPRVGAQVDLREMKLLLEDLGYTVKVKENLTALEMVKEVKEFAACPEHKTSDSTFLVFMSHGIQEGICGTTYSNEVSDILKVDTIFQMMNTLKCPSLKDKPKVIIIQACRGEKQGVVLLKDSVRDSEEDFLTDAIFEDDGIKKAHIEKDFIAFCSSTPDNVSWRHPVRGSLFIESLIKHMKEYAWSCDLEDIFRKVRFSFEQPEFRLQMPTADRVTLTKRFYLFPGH

Caspase-3 (Homo sapiens) = molecular target: T2, Caspase-3 (Homo sapiens) (UniProt P42574); test: as §1, with “of” for “of mouse”, “CPP32 (unknown origin)” for “ICE”
T2 sequence (whole entry): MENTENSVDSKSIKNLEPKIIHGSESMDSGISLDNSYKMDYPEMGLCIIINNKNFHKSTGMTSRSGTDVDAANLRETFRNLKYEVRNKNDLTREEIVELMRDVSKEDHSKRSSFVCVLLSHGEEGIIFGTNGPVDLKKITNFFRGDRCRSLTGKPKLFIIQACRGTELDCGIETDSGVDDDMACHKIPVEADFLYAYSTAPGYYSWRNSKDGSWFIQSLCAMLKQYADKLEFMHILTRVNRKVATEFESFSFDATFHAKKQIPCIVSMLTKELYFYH

Caspase-6 (Homo sapiens) = molecular target: T3, Caspase-6 (Homo sapiens) (UniProt P55212); test: Inhibition of recombinant MCH2 (unknown origin) assessed as ratio of irreversible rate constant K3 to dissociation constant of the reversible binding step Ki pre-incubated for 60 mins with Acetyl-Tyr-Val-Ala-Asp-amino-4-methylcoumarin substrate followed by enzyme addition by fluorescence based assay
T3 sequence (whole entry): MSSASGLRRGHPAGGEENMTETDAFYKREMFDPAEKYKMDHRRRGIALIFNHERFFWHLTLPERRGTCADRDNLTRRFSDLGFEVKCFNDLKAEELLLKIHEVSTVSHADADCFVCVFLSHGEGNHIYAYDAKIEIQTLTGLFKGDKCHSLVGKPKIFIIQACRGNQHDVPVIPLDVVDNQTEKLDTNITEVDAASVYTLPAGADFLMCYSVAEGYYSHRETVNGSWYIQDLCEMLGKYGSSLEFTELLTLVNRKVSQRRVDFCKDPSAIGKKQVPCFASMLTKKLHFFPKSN

Caspase-8 (Homo sapiens) = Caspase-8 (Homo sapiens) (UniProt Q14790); test: Inhibition of recombinant MCH5 (unknown origin) assessed as ratio of irreversible rate constant K3 to dissociation constant of the reversible binding step Ki pre-incubated for 60 mins with Acetyl-Tyr-Val-Ala-Asp-amino-4-methylcoumarin substrate followed by enzyme addition by fluorescence based assay
Caspase-8 (Homo sapiens), sequence (Q14790 217-374 limits assumed): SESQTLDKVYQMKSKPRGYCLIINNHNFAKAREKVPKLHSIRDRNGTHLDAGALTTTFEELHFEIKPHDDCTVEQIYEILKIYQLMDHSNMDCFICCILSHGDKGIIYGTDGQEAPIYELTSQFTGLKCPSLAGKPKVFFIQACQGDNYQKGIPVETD
Caspase-8 (Homo sapiens), sequence (Q14790 385-479 limits assumed): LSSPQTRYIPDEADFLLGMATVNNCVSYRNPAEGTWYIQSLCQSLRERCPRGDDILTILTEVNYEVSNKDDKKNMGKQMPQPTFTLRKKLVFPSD

Ratio (Caspase-1 (Mus musculus)): 46000 to 126000 M⁻¹ s⁻¹
Ratio (Caspase-3 (Homo sapiens)): 20500 to 165000 M⁻¹ s⁻¹
Ratio (Caspase-6 (Homo sapiens)): 21100 to 143000 M⁻¹ s⁻¹
Ratio (Caspase-8 (Homo sapiens)): 18700 to 92600 M⁻¹ s⁻¹
SMILES: C[C@H](NC(=O)C(=O)NC12CC3CC(CC(C3)C1)C2)C(=O)N[C@@H](CC(=O)O)C(=O)COC(=O)c1c(Cl)cccc1Cl

Ratio (Caspase-1 (Mus musculus)): 289000 M⁻¹ s⁻¹
Ratio (Caspase-3 (Homo sapiens)): 189000 M⁻¹ s⁻¹
Ratio (Caspase-6 (Homo sapiens)): 146000 M⁻¹ s⁻¹
Ratio (Caspase-8 (Homo sapiens)): 306000 M⁻¹ s⁻¹
SMILES: C[C@H](NC(=O)C(=O)Nc1cc(C(C)(C)C)ccc1C(C)(C)C)C(=O)N[C@@H](CC(=O)O)C(=O)COC(=O)c1c(Cl)cccc1Cl

Ratio (Caspase-1 (Mus musculus)): 825000 M⁻¹ s⁻¹
Ratio (Caspase-3 (Homo sapiens)): 167000 M⁻¹ s⁻¹
Ratio (Caspase-6 (Homo sapiens)): 63000 M⁻¹ s⁻¹
Ratio (Caspase-8 (Homo sapiens)): 286000 M⁻¹ s⁻¹
SMILES: CCCOc1ccc(OCC(=O)[C@H](CC(=O)O)NC(=O)[C@@H](NC(=O)C(=O)Nc2cccc3ccccc23)C(C)C)cc1

Ratio (Caspase-1 (Mus musculus)): 184000 M⁻¹ s⁻¹
Ratio (Caspase-3 (Homo sapiens)): 6330 M⁻¹ s⁻¹
Ratio (Caspase-6 (Homo sapiens)): 10700 M⁻¹ s⁻¹
Ratio (Caspase-8 (Homo sapiens)): 59900 M⁻¹ s⁻¹
SMILES: CC(C)[C@H](NC(=O)C(=O)NC12CC3CC(CC(C3)C1)C2)C(=O)N[C@@H](CC(=O)O)C(=O)COc1c(F)c(F)cc(F)c1F

Ratio (Caspase-1 (Mus musculus)): 2.05e+06 M⁻¹ s⁻¹
Ratio (Caspase-3 (Homo sapiens)): 27700 M⁻¹ s⁻¹
Ratio (Caspase-6 (Homo sapiens)): 112000 M⁻¹ s⁻¹
Ratio (Caspase-8 (Homo sapiens)): 1.16e+06 M⁻¹ s⁻¹
SMILES: CC(C)[C@H](NC(=O)C(=O)Nc1ccccc1C(C)(C)C)C(=O)N[C@@H](CC(=O)O)C(=O)COc1c(F)c(F)cc(F)c1F

Ratio (Caspase-1 (Mus musculus)): 191000 M⁻¹ s⁻¹
Ratio (Caspase-3 (Homo sapiens)): 245000 M⁻¹ s⁻¹
Ratio (Caspase-6 (Homo sapiens)): 186000 M⁻¹ s⁻¹
Ratio (Caspase-8 (Homo sapiens)): 82700 M⁻¹ s⁻¹
SMILES: C[C@H](NC(=O)C(=O)NCc1cccc2ccccc12)C(=O)N[C@@H](CC(=O)O)C(=O)COP(=O)(c1ccccc1)c1ccccc1

Ratio (Caspase-1 (Mus musculus)): 195000 M⁻¹ s⁻¹
Ratio (Caspase-3 (Homo sapiens)): 221000 M⁻¹ s⁻¹
Ratio (Caspase-6 (Homo sapiens)): 192000 M⁻¹ s⁻¹
Ratio (Caspase-8 (Homo sapiens)): 248000 M⁻¹ s⁻¹
SMILES: C[C@H](NC(=O)C(=O)Nc1cc(C(C)(C)C)ccc1C(C)(C)C)C(=O)N[C@@H](CC(=O)O)C(=O)COc1c(F)c(F)cc(F)c1F

Ratio (Caspase-1 (Mus musculus)): 59100 M⁻¹ s⁻¹
Ratio (Caspase-3 (Homo sapiens)): 600000 M⁻¹ s⁻¹
Ratio (Caspase-6 (Homo sapiens)): 244000 M⁻¹ s⁻¹
Ratio (Caspase-8 (Homo sapiens)): 203000 M⁻¹ s⁻¹
SMILES: C[C@H](NC(=O)C(=O)NCc1ccccc1)C(=O)N[C@@H](CC(=O)O)C(=O)COC(=O)c1c(Cl)cccc1Cl

More lines, now with the values behind:

SMILES: CC(C)[C@H](NC(=O)OCc1ccccc1)C(=O)N[C@@H](C)C(=O)N[C@@H](CC(=O)O)C(=O)CF (Cbz-Val-Ala-Asp-CH2F)
Ratio (Caspase-1 (Mus musculus)): 214000 M⁻¹ s⁻¹
Ratio (Caspase-3 (Homo sapiens)): 12200 M⁻¹ s⁻¹
Ratio (Caspase-6 (Homo sapiens)): 2950 M⁻¹ s⁻¹
Ratio (Caspase-8 (Homo sapiens)): 83300 M⁻¹ s⁻¹

SMILES: COc1ccccc1NC(=O)C(=O)N[C@H](C(=O)N[C@@H](CC(=O)O)C(=O)COc1c(F)c(F)cc(F)c1F)C(C)C
Ratio (Caspase-1 (Mus musculus)): 2.07e+06 M⁻¹ s⁻¹
Ratio (Caspase-3 (Homo sapiens)): 10800 M⁻¹ s⁻¹
Ratio (Caspase-6 (Homo sapiens)): 61500 M⁻¹ s⁻¹
Ratio (Caspase-8 (Homo sapiens)): 2.68e+06 M⁻¹ s⁻¹

SMILES: C[C@H](NC(=O)C(=O)NCc1ccccc1)C(=O)N[C@@H](CC(=O)O)C(=O)COc1c(F)c(F)cc(F)c1F
Ratio (Caspase-1 (Mus musculus)): 13900 M⁻¹ s⁻¹
Ratio (Caspase-3 (Homo sapiens)): 54300 M⁻¹ s⁻¹
Ratio (Caspase-6 (Homo sapiens)): 42800 M⁻¹ s⁻¹
Ratio (Caspase-8 (Homo sapiens)): 23100 M⁻¹ s⁻¹

SMILES: CC(C)[C@H](NC(=O)C(=O)Nc1ccccc1Cc1ccccc1)C(=O)N[C@@H](CC(=O)O)C(=O)COc1c(F)c(F)cc(F)c1F
Ratio (Caspase-1 (Mus musculus)): 344000 M⁻¹ s⁻¹
Ratio (Caspase-3 (Homo sapiens)): 54800 M⁻¹ s⁻¹
Ratio (Caspase-6 (Homo sapiens)): 25300 M⁻¹ s⁻¹
Ratio (Caspase-8 (Homo sapiens)): 105000 M⁻¹ s⁻¹

SMILES: C[C@H](NC(=O)C(=O)Nc1ccccc1I)C(=O)N[C@@H](CC(=O)O)C(=O)COP(=O)(c1ccccc1)c1ccccc1
Ratio (Caspase-1 (Mus musculus)): 36300 M⁻¹ s⁻¹
Ratio (Caspase-3 (Homo sapiens)): 78300 M⁻¹ s⁻¹
Ratio (Caspase-6 (Homo sapiens)): 66200 M⁻¹ s⁻¹
Ratio (Caspase-8 (Homo sapiens)): 46300 M⁻¹ s⁻¹

SMILES: C[C@H](NC(=O)C(=O)NC1CCCCC1)C(=O)N[C@@H](CC(=O)O)C(=O)COP(=O)(c1ccccc1)c1ccccc1
Ratio (Caspase-1 (Mus musculus)): 2.03e+06 M⁻¹ s⁻¹
Ratio (Caspase-3 (Homo sapiens)): 137000 M⁻¹ s⁻¹
Ratio (Caspase-6 (Homo sapiens)): 97500 M⁻¹ s⁻¹
Ratio (Caspase-8 (Homo sapiens)): 1.79e+06 M⁻¹ s⁻¹

SMILES: CC(C)[C@H](NC(=O)C(=O)Nc1ccccc1F)C(=O)N[C@@H](CC(=O)O)C(=O)COc1c(F)c(F)cc(F)c1F
Ratio (Caspase-1 (Mus musculus)): 58500 M⁻¹ s⁻¹
Ratio (Caspase-3 (Homo sapiens)): 5560 M⁻¹ s⁻¹
Ratio (Caspase-6 (Homo sapiens)): 11200 M⁻¹ s⁻¹
Ratio (Caspase-8 (Homo sapiens)): 49600 M⁻¹ s⁻¹

SMILES: C[C@H](NC(=O)C(=O)Nc1cc(C(C)(C)C)ccc1C(C)(C)C)C(=O)N[C@@H](CC(=O)O)C(=O)COP(=O)(c1ccccc1)c1ccccc1
Ratio (Caspase-1 (Mus musculus)): 211000 M⁻¹ s⁻¹
Ratio (Caspase-3 (Homo sapiens)): 104000 M⁻¹ s⁻¹
Ratio (Caspase-6 (Homo sapiens)): 308000 M⁻¹ s⁻¹
Ratio (Caspase-8 (Homo sapiens)): 1.34e+06 M⁻¹ s⁻¹

SMILES: CC(C)[C@H](NC(=O)C(=O)Nc1ccccc1-c1ccccc1)C(=O)N[C@@H](CC(=O)O)C(=O)COc1c(F)c(F)cc(F)c1F
Ratio (Caspase-1 (Mus musculus)): 127000 M⁻¹ s⁻¹
Ratio (Caspase-3 (Homo sapiens)): 25400 M⁻¹ s⁻¹
Ratio (Caspase-6 (Homo sapiens)): 31700 M⁻¹ s⁻¹
Ratio (Caspase-8 (Homo sapiens)): 65300 M⁻¹ s⁻¹

SMILES: C[C@H](NC(=O)C(=O)Nc1cccc2c1CCCC2)C(=O)N[C@@H](CC(=O)O)C(=O)COc1c(F)c(F)cc(F)c1F
Ratio (Caspase-1 (Mus musculus)): 22000 M⁻¹ s⁻¹
Ratio (Caspase-3 (Homo sapiens)): 118000 M⁻¹ s⁻¹
Ratio (Caspase-6 (Homo sapiens)): 64100 M⁻¹ s⁻¹
Ratio (Caspase-8 (Homo sapiens)): 46200 M⁻¹ s⁻¹
